System: Tricophytes Mentagrophytes
Test: Inhibition of growth of the onychomycosis pathogen on standard plates (Sabourand Dex., 30° C.)
Assay type: cell-based
Conditions: ciclopirox 8%, hydroxypropylchitosan 1%; Sabourand Dex. at 30° C.; 10, 20 and 30 μl applied
Procedure: Inhibition of the pathogen responsible for onychomycosis in humans was tested in accordance with standard procedures on standard plates. Comparison of the antimycotic effect of ciclopirox (8%) alone and, hydroxypropychitosan (1%) alone with the combination of these two compounds (8 and 1%, respectively) with respect to the growth of Tricophytes Mentagrophytes on Sabourand Dex. at 30° C. gave the following results (amounts applied in each case 10, 20 and 30 μl): […]

## Cc1cc(C2CCCCC2)n(O)c(=O)c1 [ciclopirox]
  antimycotic effect: inhibition of growth of Tricophytes Mentagrophytes: good inhibition

Reference: US7033578B2, “Antimycotic nail varnish composition” (Polichem S.A., priority 2000, dated 2006)
